Data published in ChEMBL document CHEMBL3774356, “Definitive Metabolite Identification Coupled with Automated Ligand Identification System (ALIS) Technology: A Novel Approach to Uncover Structure-Activity Relationships and Guide Drug Design in a Factor IXa Inhibitor Program” (J Med Chem, 2016).
Blank lines part the entries; values can stand above or below the compound they belong to.

What was measured:
[1] = system: Rattus norvegicus; experiment: Dose normalized AUC in Hans-Wistar rat at 2 mg/kg, po; format: ADME, organism-based; conditions: in vivo
[2] = system: Liver microsome; experiment: Drug metabolism in human liver microsomes assessed as (R)-2,6-dichloro-N-(2-(3-fluorophenyl)-2-hydroxy-2-(2-methyl-1H-benzo[d]imidazol-5-yl)ethyl)-4-(3-methyl-1H-1,2,4-triazol-1-yl)benzamide formation after 4 hrs by LC-MS/MS analysis; format: ADME
[3] = target: Coagulation factor IX (Homo sapiens, UniProt P00740); experiment: Inhibition of human factor 9a using CH3SO2-DCHG-Gly-Arg-AFC.AcOH as substrate preinubated for 30 mins followed by substrate addition measured after 1 hr by fluorescence assay
[4] = system: Liver microsome; experiment: Drug metabolism in beagle dog liver microsomes assessed as (R)-2,6-dichloro-N-(2-(3-fluorophenyl)-2-(2-methyl-1H-benzo[d]imidazol-5-yl)ethyl)-4-(3-(hydroxymethyl)-1H-1,2,4-triazol-1-yl)benzamide formation at 100 uM after 4 hrs by LC-MS/MS analysis; format: ADME, Canis lupus familiaris
[5] = system: Liver microsome; experiment: Drug metabolism in Sprague-Dawley rat liver microsomes assessed as (R)-2,6-dichloro-N-(2-(3-fluorophenyl)-2-(2-methyl-1H-benzo[d]imidazol-5-yl)ethyl)-4-(3-(hydroxymethyl)-1H-1,2,4-triazol-1-yl)benzamide formation after 4 hrs by LC-MS/MS analysis; format: ADME
[6] = system: Liver microsome; experiment: Drug metabolism in Sprague-Dawley rat liver microsomes assessed as (R)-2,6-dichloro-N-(2-(3-fluorophenyl)-2-hydroxy-2-(2-methyl-1H-benzo[d]imidazol-5-yl)ethyl)-4-(3-methyl-1H-1,2,4-triazol-1-yl)benzamide formation after 4 hrs by LC-MS/MS analysis; format: ADME
[7] = system: Liver microsome; experiment: Drug metabolism in human liver microsomes assessed as (R)-2,6-dichloro-N-(2-(3-fluorophenyl)-2-(2-methyl-1H-benzo[d]imidazol-5-yl)ethyl)-4-(3-(hydroxymethyl)-1H-1,2,4-triazol-1-yl)benzamide formation after 4 hrs by LC-MS/MS analysis; format: ADME
[8] = system: Liver microsome; experiment: Drug metabolism in beagle dog liver microsomes assessed as (R)-2,6-dichloro-N-(2-(3-fluorophenyl)-2-hydroxy-2-(2-methyl-1H-benzo[d]imidazol-5-yl)ethyl)-4-(3-methyl-1H-1,2,4-triazol-1-yl)benzamide formation at 100 uM after 4 hrs by LC-MS/MS analysis; format: ADME, Canis lupus familiaris
[9] = system: Liver microsome; experiment: Drug level in Sprague-Dawley rat liver microsomes treated with (R)-2,6-Dichloro-N-(2-(3-fluorophenyl)-2-(2-methyl-1Hbenzo[d]imidazol-5-yl)ethyl)-4-(3-methyl-1H-1,2,4-triazol-1-yl)-benzamide after 4 hrs by LC-MS/MS analysis; format: ADME
[10] = system: Liver microsome; experiment: Drug level in human liver microsomes treated with (R)-2,6-Dichloro-N-(2-(3-fluorophenyl)-2-(2-methyl-1Hbenzo[d]imidazol-5-yl)ethyl)-4-(3-methyl-1H-1,2,4-triazol-1-yl)-benzamide after 4 hrs by LC-MS/MS analysis; format: ADME
[11] = Retention time of the compound by size exclusion chromatography; format: physicochemical
[12] = system: Liver microsome; experiment: Drug level in beagle dog liver microsomes treated with (R)-2,6-Dichloro-N-(2-(3-fluorophenyl)-2-(2-methyl-1Hbenzo[d]imidazol-5-yl)ethyl)-4-(3-methyl-1H-1,2,4-triazol-1-yl)-benzamide at 100 uM after 4 hrs by LC-MS/MS analysis; format: ADME, Canis lupus familiaris

Chain of Coagulation factor IX (P00740 47-191 limits assumed): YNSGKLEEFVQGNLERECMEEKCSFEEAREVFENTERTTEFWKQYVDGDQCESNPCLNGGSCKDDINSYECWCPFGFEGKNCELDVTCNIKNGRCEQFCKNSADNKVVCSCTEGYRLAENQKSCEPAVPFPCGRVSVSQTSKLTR
Chain of Coagulation factor IX (P00740 227-461 limits assumed): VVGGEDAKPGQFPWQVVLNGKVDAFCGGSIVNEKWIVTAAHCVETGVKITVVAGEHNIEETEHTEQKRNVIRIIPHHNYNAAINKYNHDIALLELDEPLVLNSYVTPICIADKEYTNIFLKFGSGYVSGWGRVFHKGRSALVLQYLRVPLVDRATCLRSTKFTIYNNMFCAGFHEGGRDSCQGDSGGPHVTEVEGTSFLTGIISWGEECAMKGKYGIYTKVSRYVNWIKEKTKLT

SMILES: Cc1nc2cc([C@@H](CNC(=O)c3c(Cl)cc(-n4cnc(CO)n4)cc3Cl)c3cccc(F)c3)ccc2[nH]1
Drug metabolism [12]: metabolite_detected | Drug metabolism [9]: metabolite_detected | IC50 [3]: 11 nM | Drug metabolism [10]: metabolite_detected | Retention_time [11]: 3.84 min

SMILES: Cc1ncn(-c2cc(Cl)c(C(=O)NC[C@@H](c3cccc(F)c3)c3cc(F)c4[nH]c(C)nc4c3)c(Cl)c2)n1
Ki [3]: 10.6 nM

SMILES: Cc1ncn(-c2cc(Cl)c(C(=O)NCC(O)(c3cccc(F)c3)c3ccc4[nH]c(C)nc4c3)c(Cl)c2)n1 (single isomer, unassigned)
Drug metabolism [12]: metabolite_detected | Drug metabolism [9]: metabolite_detected | IC50 [3]: 63.9 nM | Drug metabolism [10]: metabolite_detected | Retention_time [11]: 4.24 min

Further compounds by falling IC50 [3], results first:

AUC/dose [1]: 0.097 µM·h/mg/kg | Drug metabolism [2]: metabolite_detected | IC50 [3]: 9.99 nM | Drug metabolism [4]: metabolite_detected | Drug metabolism [5]: metabolite_detected | Drug metabolism [6]: metabolite_detected | Drug metabolism [7]: metabolite_detected | Drug metabolism [8]: metabolite_detected
SMILES: Cc1ncn(-c2cc(Cl)c(C(=O)NC[C@@H](c3cccc(F)c3)c3ccc4[nH]c(C)nc4c3)c(Cl)c2)n1

Drug metabolism [9]: metabolite_detected | IC50 [3]: 1.86 nM | Drug metabolism [10]: metabolite_detected | Retention_time [11]: 3.59 min
SMILES: Cc1ncn(-c2cc(Cl)c(C(=O)NC[C@@H](c3ccc(O)c(F)c3)c3ccc4[nH]c(C)nc4c3)c(Cl)c2)n1
